{
  "source": "PubChem BioAssay AID1963874",
  "about": "(Molecular Pharmacology Branch, DTP, NCI, 2024)",
  "system": "253994-281-T-J1-PDC KRAS-mutant spheroids with HUVEC/MSC, viability",
  "test": "Anticancer human tumor 253994-281-T-J1-PDC patient-derived colorectal carcinoma cell line growth inhibition [KRAS2]",
  "details": "for viability, T/C: stronger effect = lower value",
  "how_it_was_run": "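Combination screen of spheroid viability in tumor-cell co-cultures with endothelial (HUVEC) and mesenchymal stem cell stroma. Each agent was tested in half-log dilutions, topping at clinical Cmax or at 10 microM without a known Cmax.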",
  "key": {"[1]": {"details": "curve of first compound, second compound 0.1 µM"}, "[2]": {"details": "curve of first compound, second compound 0.316 µM"}, "[3]": {"details": "curve of first compound, second compound 1 µM"}, "[4]": {"details": "curve of first compound, second compound 3.16 µM"}, "[5]": {"details": "curve of first compound, second compound 10 µM"}, "[6]": {"details": "second compound 0.1 µM, first compound 0.0316 µM"}, "[7]": {"details": "second compound 0.1 µM, first compound 0.1 µM"}, "[8]": {"details": "second compound 0.316 µM, first compound 0.0316 µM"}, "[9]": {"details": "second compound 0.316 µM, first compound 0.1 µM"}, "[10]": {"details": "second compound 1 µM, first compound 0.0316 µM"}, "[11]": {"details": "second compound 1 µM, first compound 0.1 µM"}, "[12]": {"details": "second compound 3.16 µM, first compound 0.0316 µM"}, "[13]": {"details": "second compound 3.16 µM, first compound 0.1 µM"}, "[14]": {"details": "second compound 10 µM, first compound 0.0316 µM"}, "[15]": {"details": "second compound 10 µM, first compound 0.1 µM"}},
  "data": [
    {"compound": "CC(C)n1nc(-c2ccc3oc(N)nc3c2)c2c(N)ncnc21", "note": "+ COc1cc2nc(C)nc(NC(C)c3cc(N)cc(C(F)(F)F)c3)c2cc1OC1CCOC1;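 note: spheroids exposed to agents for seven days before readout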;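 for viability, T/C: percent of DMSO vehicle control viability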", "values": [
      {"measurement": "IC50", "setting": "[1]", "value": "> 0.1", "unit": "µM"},
      {"measurement": "IC50", "setting": "[2]", "value": "> 0.1", "unit": "µM"},
      {"measurement": "IC50", "setting": "[3]", "value": "> 0.1", "unit": "µM"},
      {"measurement": "IC50", "setting": "[4]", "value": "> 0.1", "unit": "µM"},
      {"measurement": "IC50", "setting": "[5]", "value": 0.0849, "unit": "µM"},
      {"measurement": "viability, T/C", "setting": "second compound 0.1 µM, first compound 0.000316 µM", "value": 82.7, "unit": "%"},
      {"measurement": "viability, T/C", "setting": "second compound 0.1 µM, first compound 0.001 µM", "value": 102, "unit": "%"},
      {"measurement": "viability, T/C", "setting": "second compound 0.1 µM, first compound 0.00316 µM", "value": 74.1, "unit": "%"},
      {"measurement": "viability, T/C", "setting": "second compound 0.1 µM, first compound 0.01 µM", "value": 87, "unit": "%"},
      {"measurement": "viability, T/C", "setting": "[6]", "value": 82.7, "unit": "%"},
      {"measurement": "viability, T/C", "setting": "[7]", "value": 56.8, "unit": "%"},
      {"measurement": "viability, T/C", "setting": "second compound 0.316 µM, first compound 0.000316 µM", "value": 86.4, "unit": "%"},
      {"measurement": "viability, T/C", "setting": "second compound 0.316 µM, first compound 0.001 µM", "value": 83.6, "unit": "%"},
      {"measurement": "viability, T/C", "setting": "second compound 0.316 µM, first compound 0.00316 µM", "value": 88, "unit": "%"},
      {"measurement": "viability, T/C", "setting": "second compound 0.316 µM, first compound 0.01 µM", "value": 79.3, "unit": "%"},
      {"measurement": "viability, T/C", "setting": "[8]", "value": 74.4, "unit": "%"},
      {"measurement": "viability, T/C", "setting": "[9]", "value": 56.2, "unit": "%"},
      {"measurement": "viability, T/C", "setting": "second compound 1 µM, first compound 0.000316 µM", "value": 90, "unit": "%"},
      {"measurement": "viability, T/C", "setting": "second compound 1 µM, first compound 0.001 µM", "value": 97.6, "unit": "%"},
      {"measurement": "viability, T/C", "setting": "second compound 1 µM, first compound 0.00316 µM", "value": 82, "unit": "%"},
      {"measurement": "viability, T/C", "setting": "second compound 1 µM, first compound 0.01 µM", "value": 82.7, "unit": "%"},
      {"measurement": "viability, T/C", "setting": "[10]", "value": 76.5, "unit": "%"},
      {"measurement": "viability, T/C", "setting": "[11]", "value": 51, "unit": "%"},
      {"measurement": "viability, T/C", "setting": "second compound 3.16 µM, first compound 0.000316 µM", "value": 81.9, "unit": "%"},
      {"measurement": "viability, T/C", "setting": "second compound 3.16 µM, first compound 0.001 µM", "value": 94.5, "unit": "%"},
      {"measurement": "viability, T/C", "setting": "second compound 3.16 µM, first compound 0.00316 µM", "value": 85.5, "unit": "%"},
      {"measurement": "viability, T/C", "setting": "second compound 3.16 µM, first compound 0.01 µM", "value": 82, "unit": "%"},
      {"measurement": "viability, T/C", "setting": "[12]", "value": 72.8, "unit": "%"},
      {"measurement": "viability, T/C", "setting": "[13]", "value": 57.2, "unit": "%"},
      {"measurement": "viability, T/C", "setting": "second compound 10 µM, first compound 0.000316 µM", "value": 78.5, "unit": "%"},
      {"measurement": "viability, T/C", "setting": "second compound 10 µM, first compound 0.001 µM", "value": 79.5, "unit": "%"},
      {"measurement": "viability, T/C", "setting": "second compound 10 µM, first compound 0.00316 µM", "value": 77.2, "unit": "%"},
      {"measurement": "viability, T/C", "setting": "second compound 10 µM, first compound 0.01 µM", "value": 79.5, "unit": "%"},
      {"measurement": "viability, T/C", "setting": "[14]", "value": 64.1, "unit": "%"},
      {"measurement": "viability, T/C", "setting": "[15]", "value": 47.6, "unit": "%"}
    ]},
    {"compound": "CC(=O)OC12COC1CC(O)C1(C)C(=O)C(O)C3=C(C)C(OC(=O)C(O)C(NC(=O)OC(C)(C)C)c4ccccc4)CC(O)(C(OC(=O)c4ccccc4)C21)C3(C)C", "note": "(configuration not stated)", "values": [
      {"measurement": "viability, T/C", "setting": "compound 0.01 µM", "value": "79.1% [middle of 5 runs]"},
      {"measurement": "viability, T/C", "setting": "compound 0.0316 µM", "value": "49.9% [middle of 5 runs]"},
      {"measurement": "viability, T/C", "setting": "compound 0.1 µM", "value": "32.9% [middle of 5 runs]"},
      {"measurement": "viability, T/C", "setting": "compound 0.316 µM", "value": "29.5% [middle of 5 runs]"},
      {"measurement": "viability, T/C", "setting": "compound 1 µM", "value": "28.2% [middle of 5 runs]"},
      {"measurement": "viability, T/C", "setting": "compound 3.16 µM", "value": "26.4% [middle of 5 runs]"},
      {"measurement": "IC50", "setting": "curve of compound", "value": "31.5 nM [middle of 5 runs]"}
    ]},
    {"compound": "CCNC(=O)CC1N=C(c2ccc(Cl)cc2)c2cc(OC)ccc2-n2c(C)nnc21", "note": "(configuration not stated) + COc1cc2nc(C)nc(NC(C)c3cc(N)cc(C(F)(F)F)c3)c2cc1OC1CCOC1", "values": [
      {"measurement": "IC50", "setting": "[1]", "value": "> 10", "unit": "µM"},
      {"measurement": "IC50", "setting": "[2]", "value": "> 10", "unit": "µM"},
      {"measurement": "IC50", "setting": "[3]", "value": 7.76, "unit": "µM"},
      {"measurement": "IC50", "setting": "[4]", "value": 5.93, "unit": "µM"},
      {"measurement": "IC50", "setting": "[5]", "value": 3.25, "unit": "µM"},
      {"measurement": "viability, T/C", "setting": "[6]", "value": 99, "unit": "%"},
      {"measurement": "viability, T/C", "setting": "[7]", "value": 93.9, "unit": "%"},
      {"measurement": "viability, T/C", "setting": "second compound 0.1 µM, first compound 0.316 µM", "value": 78.1, "unit": "%"},
      {"measurement": "viability, T/C", "setting": "second compound 0.1 µM, first compound 1 µM", "value": 76.5, "unit": "%"},
      {"measurement": "viability, T/C", "setting": "second compound 0.1 µM, first compound 3.16 µM", "value": 70.5, "unit": "%"},
      {"measurement": "viability, T/C", "setting": "second compound 0.1 µM, first compound 10 µM", "value": 71.8, "unit": "%"},
      {"measurement": "viability, T/C", "setting": "[8]", "value": 87.5, "unit": "%"},
      {"measurement": "viability, T/C", "setting": "[9]", "value": 97.6, "unit": "%"},
      {"measurement": "viability, T/C", "setting": "second compound 0.316 µM, first compound 0.316 µM", "value": 77.9, "unit": "%"},
      {"measurement": "viability, T/C", "setting": "second compound 0.316 µM, first compound 1 µM", "value": 68.4, "unit": "%"},
      {"measurement": "viability, T/C", "setting": "second compound 0.316 µM, first compound 3.16 µM", "value": 73, "unit": "%"},
      {"measurement": "viability, T/C", "setting": "second compound 0.316 µM, first compound 10 µM", "value": 51.1, "unit": "%"},
      {"measurement": "viability, T/C", "setting": "[10]", "value": 92.9, "unit": "%"},
      {"measurement": "viability, T/C", "setting": "[11]", "value": 95.4, "unit": "%"},
      {"measurement": "viability, T/C", "setting": "second compound 1 µM, first compound 0.316 µM", "value": 79.8, "unit": "%"},
      {"measurement": "viability, T/C", "setting": "second compound 1 µM, first compound 1 µM", "value": 69.5, "unit": "%"},
      {"measurement": "viability, T/C", "setting": "second compound 1 µM, first compound 3.16 µM", "value": 61, "unit": "%"},
      {"measurement": "viability, T/C", "setting": "second compound 1 µM, first compound 10 µM", "value": 46.7, "unit": "%"},
      {"measurement": "viability, T/C", "setting": "[12]", "value": 86.3, "unit": "%"},
      {"measurement": "viability, T/C", "setting": "[13]", "value": 89.1, "unit": "%"},
      {"measurement": "viability, T/C", "setting": "second compound 3.16 µM, first compound 0.316 µM", "value": 78.5, "unit": "%"},
      {"measurement": "viability, T/C", "setting": "second compound 3.16 µM, first compound 1 µM", "value": 70.3, "unit": "%"},
      {"measurement": "viability, T/C", "setting": "second compound 3.16 µM, first compound 3.16 µM", "value": 52.7, "unit": "%"},
      {"measurement": "viability, T/C", "setting": "second compound 3.16 µM, first compound 10 µM", "value": 47.2, "unit": "%"},
      {"measurement": "viability, T/C", "setting": "[14]", "value": 82.6, "unit": "%"},
      {"measurement": "viability, T/C", "setting": "[15]", "value": 83.2, "unit": "%"},
      {"measurement": "viability, T/C", "setting": "second compound 10 µM, first compound 0.316 µM", "value": 87.1, "unit": "%"},
      {"measurement": "viability, T/C", "setting": "second compound 10 µM, first compound 1 µM", "value": 62.9, "unit": "%"},
      {"measurement": "viability, T/C", "setting": "second compound 10 µM, first compound 3.16 µM", "value": 53.4, "unit": "%"},
      {"measurement": "viability, T/C", "setting": "second compound 10 µM, first compound 10 µM", "value": 31.6, "unit": "%"}
    ]}
  ]
}
